The IC50 is the concentration at which inhibition is half-maximal.

Structures are written as SMILES. A value given as a limit tells only on which side of the number the result lay.

The target in test [1] is A-Raf kinase (SEQ. ID No: 1) (Homo sapiens (Human), UniProt P10398, Y301D/Y302D). Nature of the test: Biochemical Assay for A-Raf (1). Conditions: Table J, assay version (1); read-out: ARAF (1) IC50. The method, boiled down:
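IC50 values were derived by four-parameter sigmoidal fitting of percent inhibition, calculated from reaction rates over the 4–5 h window. Absorbance at 340 nm was tracked for 6 h at 30 °C via coupled PK/LDH NADH depletion. Conditions: 1 mM ATP, 30.1 nM MEK substrate, 5.55 nM A-Raf (Y301D/Y302D), Tris pH 7.5, 1% DMSO.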

The target in test [2] is B-Raf kinase (SEQ. ID NO: 2) (Homo sapiens (Human), UniProt P15056). As to the kind of experiment: Biochemical Assay for B-Raf (1). Conditions: Table J, assay version (1); read-out: BRAF (1) IC50. Summed up:
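IC50 derived by four-parameter sigmoidal fit of percent inhibition, normalised to uninhibited and reference-inhibitor controls, using reaction rates over 4–5 h. Coupled spectrophotometric readout (NADH loss at 340 nm, 6 h, 30° C.); 1 mM ATP, 30.1 nM MEK, 0.13 nM B-Raf, pH 7.5 Tris buffer, 1% DMSO.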

The subject of the next test is Miapaca-2 cells. As to the kind of experiment: MiaPaca-2 Cell Proliferation Assay (1). The test is classed as cell-based. Conditions: Homo sapiens, MIA PaCa-2, single agent, read-out: MiaPaca2 (1) IC50. The method, boiled down:
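Resazurin was added after compound exposure and incubated 5-6 h, then fluorescence read at 540 nm excitation and 600 nm emission to give IC50.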

A further test has as its system WM3928 cells. Nature of the test: WM3928 Cell Proliferation Assay (1). The test is classed as cell-based. The method, boiled down: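 IC50 was derived from resazurin fluorescence (ex 540, em 600 nm) after a 6–7 h dye incubation. Before that, cells had 67–72 h of compound exposure at 37 °C, 5% CO2.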

Chain of B-Raf kinase (SEQ. ID NO: 2) (P15056 416-766): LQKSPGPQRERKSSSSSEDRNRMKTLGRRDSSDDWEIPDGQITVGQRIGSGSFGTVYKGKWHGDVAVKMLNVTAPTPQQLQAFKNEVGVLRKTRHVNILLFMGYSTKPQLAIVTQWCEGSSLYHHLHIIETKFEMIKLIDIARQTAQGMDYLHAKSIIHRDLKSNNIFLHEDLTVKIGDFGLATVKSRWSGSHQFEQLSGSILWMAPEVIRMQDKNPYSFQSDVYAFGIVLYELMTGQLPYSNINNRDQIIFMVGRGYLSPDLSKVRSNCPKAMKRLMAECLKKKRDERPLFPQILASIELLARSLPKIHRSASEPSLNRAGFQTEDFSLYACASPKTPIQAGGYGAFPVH
Chain of A-Raf kinase (SEQ. ID No: 1) (P10398 other isoform, or with tags, fused parts or gaps Y301D (already in the parent)/Y302D (already in the parent)): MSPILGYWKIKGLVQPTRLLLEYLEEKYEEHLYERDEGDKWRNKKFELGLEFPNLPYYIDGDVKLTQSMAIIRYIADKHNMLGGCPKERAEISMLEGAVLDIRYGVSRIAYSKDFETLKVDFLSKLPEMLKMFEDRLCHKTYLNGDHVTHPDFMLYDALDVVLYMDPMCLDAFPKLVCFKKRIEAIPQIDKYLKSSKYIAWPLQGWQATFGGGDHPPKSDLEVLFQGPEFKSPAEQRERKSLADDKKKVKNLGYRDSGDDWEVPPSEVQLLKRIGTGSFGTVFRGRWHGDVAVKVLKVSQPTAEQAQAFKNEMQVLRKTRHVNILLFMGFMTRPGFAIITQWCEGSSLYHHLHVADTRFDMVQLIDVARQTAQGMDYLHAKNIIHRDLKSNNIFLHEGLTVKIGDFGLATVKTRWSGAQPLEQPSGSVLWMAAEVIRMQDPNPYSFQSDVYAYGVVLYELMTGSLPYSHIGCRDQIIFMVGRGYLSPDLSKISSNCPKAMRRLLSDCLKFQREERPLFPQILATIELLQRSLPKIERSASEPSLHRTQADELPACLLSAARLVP

Consider `Cc1ccc(NC(=O)c2ccnc(C(C)(C)C#N)c2)cc1-c1nccc(-c2ccnc3c2CC(=O)N3)n1` [Example 22], for which the IC50 in test [1] was 1000 to 10000 nM; in test [2], at most 100 nM; in the test with Miapaca-2 cells, 1000 to 10000 nM; in the test on WM3928 cells it was at most 100 nM.
On to `Cc1ccc(NC(=O)c2ccnc(C(C)(C)C#N)c2)cc1-c1ccnc(-c2ccnc3c2CC(=O)N3)c1` [Example 23], for which the IC50 in test [1] is 1000 to 10000 nM; in test [2], at most 100 nM; in the test on Miapaca-2 cells, 1000 to 10000 nM; with WM3928 cells, at most 100 nM.
As for `CC(=O)Nc1cc(-c2nccc(-c3cc(NC(=O)c4ccnc(C(F)(F)F)c4)ccc3C)n2)ccn1` [Example 24], the IC50 is 500 to 1000 nM in test [1], at most 100 nM in test [2], 1000 to 10000 nM in the test with Miapaca-2 cells and at most 100 nM in the test with WM3928 cells.
For the compound `CNC(=O)c1cc(-c2nccc(-c3cc(NC(=O)c4ccnc(C(F)(F)F)c4)ccc3C)n2)ccn1` [Example 25], the IC50 in test [1] is 1000 to 10000 nM; in test [2] it was at most 100 nM; in the test with Miapaca-2 cells, 1000 to 10000 nM; with WM3928 cells, 500 to 1000 nM.
On to `CNC(=O)c1cc(-c2cc(-c3cc(NC(=O)c4ccnc(C(F)(F)F)c4)ccc3C)cc(C3CC3)n2)ccn1` [Example 27], for which the IC50 in test [1] is 1000 to 10000 nM; in test [2], 100 to 500 nM; in the test with Miapaca-2 cells, 1000 to 10000 nM; with WM3928 cells, at most 100 nM.
As for `CC(=O)Nc1cc(-c2cncc(-c3cc(NC(=O)c4ccnc(C(F)(F)F)c4)ccc3C)n2)ccn1` [Example 29], the IC50 was 1000 to 10000 nM in test [1], at most 100 nM in test [2], 1000 to 10000 nM with Miapaca-2 cells and at most 100 nM with WM3928 cells.
On to `CC(=O)Nc1cc(-c2cccc(-c3cc(NC(=O)c4ccnc(C(F)(F)F)c4)ccc3C)c2)ncn1` [Example 30], for which the IC50 in test [1] is 500 to 1000 nM; in test [2] it was at most 100 nM; in the test on Miapaca-2 cells, 1000 to 10000 nM; in the test on WM3928 cells, at most 100 nM.
With `Cc1ncc(NC(=O)c2cncc(C(F)F)c2)cc1-c1cccc(-c2cc(NC(=O)C3CC3)ncn2)c1` [Example 280], the IC50 was 1000 to 10000 nM in test [1], at most 100 nM in test [2], 1000 to 10000 nM in the test on Miapaca-2 cells and at most 100 nM with WM3928 cells.
As for `Cc1ncc(NC(=O)c2cn(C(C)C)nn2)cc1-c1ccnc(-c2ccnc(NC(=O)C3CC3)c2)n1` [Example 281], the IC50 in test [1] was 1000 to 10000 nM; in test [2], at most 100 nM; with Miapaca-2 cells it was 1000 to 10000 nM; in the test on WM3928 cells, 1000 to 10000 nM.
Regarding `COC(=O)Nc1cc(-c2cccc(-c3cc(NC(=O)c4ccnc(C(C)(C)C#N)c4)cnc3C)c2)ccn1` [Example 282], the 50% inhibitory concentration (IC50) in test [1] was 1000 to 10000 nM; in test [2], at most 100 nM; with Miapaca-2 cells it was 1000 to 10000 nM; in the test with WM3928 cells, 100 to 500 nM.
With `Cc1ncc(NC(=O)c2cnn(C(C)(C)C)c2)cc1-c1ccnc(-c2ccnc(NC(=O)C3CC3)c2)n1` [Example 283], the IC50 in test [1] is 1000 to 10000 nM; in test [2], at most 100 nM; in the test with Miapaca-2 cells, 1000 to 10000 nM; in the test on WM3928 cells it was 100 to 500 nM.
As for `Cc1ccc(NC(=O)c2cnnc(C3CC3)c2)cc1-c1cccc(-c2cc(NC(=O)C3CC3)ncn2)c1` [Example 284], the IC50 in test [1] was 500 to 1000 nM; in test [2], at most 100 nM; in the test on Miapaca-2 cells it was 1000 to 10000 nM; in the test on WM3928 cells, at most 100 nM.
As to `Cc1nc(-c2ccnc(NC(=O)C3CC3)c2)cc(-c2cc(NC(=O)c3ccnc(C4(C#N)CC4)c3)cnc2C)n1` [Example 286], the IC50 in test [1] was 1000 to 10000 nM; in test [2], at most 100 nM; with Miapaca-2 cells it was 1000 to 10000 nM; in the test on WM3928 cells, 100 to 500 nM.
`Cc1nc(-c2ccnc(NC(=O)C3CC3)c2)cc(-c2cc(NC(=O)c3ccnc(C4CC4)c3)cnc2C)n1` [Example 287]: the IC50 is 1000 to 10000 nM in test [1], at most 100 nM in test [2], 1000 to 10000 nM with Miapaca-2 cells and 100 to 500 nM in the test with WM3928 cells.
As for `COC(=O)Nc1cc(-c2cccc(-c3cc(NC(=O)c4ccnc(C5CC5)c4)cnc3C)c2)ccn1` [Example 288], the IC50 was 1000 to 10000 nM in test [1], at most 100 nM in test [2], 1000 to 10000 nM with Miapaca-2 cells and 1000 to 10000 nM in the test with WM3928 cells.
Turning to `COC(=O)Nc1nccc(-c2cccc(-c3cc(NC(=O)c4ccnc(C(C)(C)C#N)c4)cnc3C)c2)n1` [Example 290], the IC50 in test [1] is 1000 to 10000 nM; in test [2] it was 500 to 1000 nM; in the test with Miapaca-2 cells it was 1000 to 10000 nM; with WM3928 cells it was 500 to 1000 nM.
`Cc1ncc(NC(=O)c2ccnc(C3CC3)c2)cc1-c1cccc(-c2cc(NC(=O)C3CC3)ncn2)c1` [Example 291]: the half-maximal inhibitory concentration (IC50) in test [1] was 1000 to 10000 nM; in test [2] it was at most 100 nM; in the test on Miapaca-2 cells, 1000 to 10000 nM; with WM3928 cells, at most 100 nM.
Take `Cc1ncc(NC(=O)c2ccnc(C3CC3)c2)cc1-c1nccc(-c2ccnc(NC(=O)C3CC3)c2)n1` [Example 295]: the IC50 in test [1] is 1000 to 10000 nM; in test [2], at most 100 nM; with Miapaca-2 cells, 1000 to 10000 nM; with WM3928 cells it was 100 to 500 nM.
Take `COC(=O)Nc1cc(-c2cc(-c3cc(NC(=O)c4ccnc(C(C)(C)C#N)c4)cnc3C)ccn2)ccn1` [Example 297]: the IC50 in test [1] was 1000 to 10000 nM; in test [2] it was at most 100 nM; in the test on Miapaca-2 cells, 1000 to 10000 nM; in the test on WM3928 cells, at most 100 nM.
Turning to `CNC(=O)c1cc(-c2cnnc(-c3cc(NC(=O)c4ccc(F)c(C(F)(F)F)c4)ccc3C)c2)ccn1` [Example 329], the values for the IC50 (in test [1]; in test [2]; with WM3928 cells) were 1000 to 10000 nM, 500 to 1000 nM and 1000 to 10000 nM, respectively.
On to `Cc1ccc(NC(=O)c2ccnc(C3CC3)c2)cc1-c1cc(-c2ccnc(NC(=O)C3CC3)c2)cnn1` [Example 331], for which the IC50 in test [1] is 1000 to 10000 nM; in test [2] it was at most 100 nM; in the test with WM3928 cells, 500 to 1000 nM.
For `Cc1ccc(NC(=O)c2ccnc(S(C)(=O)=O)c2)cc1-c1cc(-c2ccnc(NC(=O)C3CC3)c2)cnn1` [Example 332], the results for the IC50 (in test [1]; in test [2]; in the test with WM3928 cells) were 1000 to 10000 nM, at most 100 nM and 1000 to 10000 nM, respectively.
`CO[C@H]1CC[C@H](C(=O)Nc2ccc(C)c(-c3ccnc(-c4ccnc(NC(=O)C5CC5)c4)n3)c2)CC1` [Example 341]: the IC50 in test [1] lay within 1000 to 10000 nM; in test [2], 100 to 500 nM; with WM3928 cells, 1000 to 10000 nM.
As for `CNC(=O)c1cc(-c2cc(-c3cc(NC(=O)COCC4CC4)ccc3C)ccn2)ccn1` [Example 358], the values for the IC50 (in test [1]; in test [2]; with WM3928 cells) were 1000 to 10000 nM, at most 100 nM and 1000 to 10000 nM, respectively.
In the case of `COC(=O)Nc1cc(-c2cnnc(-c3cc(NC(=O)COCC4CC4)ccc3C)c2)ccn1` [Example 360], the IC50 lay within 1000 to 10000 nM in test [1], 500 to 1000 nM in test [2] and 1000 to 10000 nM in the test with WM3928 cells.
Take `CNC(=O)c1cc(-c2cnnc(-c3cc(NC(=O)c4ccnc(C(F)(F)F)c4)ccc3C)c2)ccn1` [Example 364]: the half-maximal inhibitory concentration (IC50) is 1000 to 10000 nM in test [1], 100 to 500 nM in test [2] and 1000 to 10000 nM in the test on WM3928 cells.
For the compound `Cc1ccc(NC(=O)C2CCOC(C(C)C)C2)cc1-c1cc(-c2ccnc(NC(=O)C3CC3)c2)cnn1` (stereo not shown) [Example 370], the IC50 was 1000 to 10000 nM in test [1], at most 100 nM in test [2] and 1000 to 10000 nM in the test with WM3928 cells.
For `CNC(=O)c1cc(-c2cc(-c3cc(NC(=O)c4ccnc(C(C)(C)F)c4)ccc3C)cnc2C)ccn1` [Example 371], the IC50 in test [1] lay in the range of 1000 to 10000 nM; in test [2], 100 to 500 nM; in the test on WM3928 cells, 100 to 500 nM.

The record behind these values is patent publication US12319655B2, “RAF kinase inhibitors and methods of use thereof” (Deciphera Pharmaceuticals, LLC, priority 2021, dated 2025).
